Read-outs that look alike come from different tables or passages of the source.
Tests used:
[1] = tested on: hTERT expression; test: SEAP assay, H1299/PhTERT-driven SEAP system; format: cell-based, human; conditions: Homo sapiens
Description: The condition of the cells for selecting the telomerase inhibitor must be the cancer cells with telomerase activity. H1299 is a non-small cell lung cancer cell line with telomerase activity. The hTERT communication gene linked behind PhTERT which is located at the fifth chromosome of H1299 cell can be expressed; however, this expression is hard to detect. Therefore, the plasmid having the SEAP communication gene linked behind PhTERT was transfected into H1299 cells. Under the identical condition, after PhTERT was activated, the SEAP communication gene linked behind the plasmid was also activated. This gene could be detected by this analytic method while expressing.
If additionally added reagent can inhibit PhTERT, the linked SEAP communication gene will not be expressed, and the hTERT communication gene linked behind PhTERT at the fifth chromosome will not be expressed. […]
The cellular medium after the cellular incubation was transferred into the eppondorf tube, and the activity of endogeneous alkaline phosphatase was inactivated at 65° C. for 10 minutes. After centrification, the mixture was obtained by mixing 50 μl of the supernatant with the equal volume of the SEAP buffer. The mixture and the substrate (120 mM of p-nitrophenylphosphate) were preheated at 37° C. for 10 minutes respectively, and the mixture and the substrate were mixed at a ratio of 1:10 and reacted at 37° C. The absorbance of visible light at 405 nm was determined at the appropriate time intervals, and the enzymatic activity of SEAP was represented by the speed of the increasing absorbance at 405 nm.
The selection of telomerase inhibitors of the anthraquinone compounds provided in the present invention was performed by the H1299/PhTERT-driven SEAP system. SEAP is the communication gene in this drug selection model. The SEAP inhibition was shown as follows. The quantitative cellular medium obtained after the 24-hour drug-treatment and the identical inactivation was reacted with the quantitative SEAP substrate, and the absorbance at 405 nm was detected for 5 time intervals. Subsequently, the linear slope of absorbance to the measuring time was calculated, and the variance of absorbance at 405 nm per minute was represented and compared with the SEAP-producing result of drug-untreated H1299 cells. In addition, the influence of the cell-treated drug solution to the cellular proliferation and the drug toxicity to the cells were considered, and the cellular growth was evaluated by the MTT assay. The drug-treated cells were analyzed by the SEAP assay and the data analysis of MTT assay at the same time. Both results were compared so as to delete the influence of cell number or the activity to SEAP, and the dose-dependent phenomenon could be anticipated in the range of drug concentration designed by the laboratory.
In the preliminary selection, the highest concentration was 1000 μM, and 10-fold serial dilutions were done. Therefore, the final concentrations for treating cells were 1 μM, 10 μM and 100 μM, and the drug concentrations were repeated for 5 times. Since the chemically-synthetic drugs have colors thereon, the SEAP value of drug-treatment without cells was also determined to be the background value which was deducted while treating with the drugs. The candidate drug for inhibiting telomerase on the hTERT gene expression level was evaluated and anticipated.

[2] = MTT assay in H1299 cells; format: cell-based; conditions: human, H1299 cells (H1299/PhTERT-driven SEAP reporter system), H1299, read-out: MTT (Inhibition μM ± SD); for viability at 24 h, 1 µM: compound concentration 1 μM; for viability at 24 h, 10 µM: compound concentration 10 μM; for viability at 24 h, 100 µM: compound concentration 100 μM
Procedure, shortened: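 H1299 cells, 2×10^3 per well, treated with drug 48 h. MTT (5 mg/ml stock) added for 4 h at 37° C, then SDS/DMF lysis overnight; absorbance at 570 nm gives viability, used alongside SEAP reporter readout to correct for cell number.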

[3] = NCI-H1299, read-out: SEAP (Inhibition μM ± SD)
[4] = NCI-H1299, H1299, compound concentration 1 μM, read-out: SEAP (Inhibition μM ± SD)
[5] = NCI-H1299, H1299, compound concentration 10 μM, read-out: SEAP (Inhibition μM ± SD)
[6] = NCI-H1299, H1299, compound concentration 100 μM, read-out: SEAP (Inhibition μM ± SD)

SMILES | activity at 1 µM [1, 3] [%] | activity at 10 µM [1, 3] [%] | activity at 100 µM [1, 3] [%] | viability at 24 h, 1 µM [2] [%] | viability at 24 h, 10 µM [2] [%] | viability at 24 h, 100 µM [2] [%] | activity at 1 µM [1, 4] [%] | activity at 10 µM [1, 5] [%] | activity at 100 µM [1, 6] [%]
CC(C)NCC(=O)Nc1ccc2c(c1)C(=O)c1cc(NC(=O)CNC(C)C)ccc1C2=O [Compound 13, 2,7-Bis[2-(isopropylamino)acetamido]anthraquinone] | 73 ± 31 | 28 ± 18 | 21 ± 16 | 78 ± 10 | 26 ± 15 | 6 ± 11 |  |  | 
O=C(CCc1ccccc1)Nc1ccc2c(c1)C(=O)c1cc(NC(=O)CCc3ccccc3)ccc1C2=O [Compound 31, 2,7-Bis(phenylpropionamido)anthraquinone] |  |  |  | 102 ± 11 | 94 ± 13 | 76 ± 18 | 89 ± 23 | 79 ± 8 | 61 ± 13
CCCCNCCC(=O)Nc1ccc2c(c1)C(=O)c1cc(NC(=O)CCNCCCC)ccc1C2=O [Compound 17, 2,7-Bis[3-(butylamino)propionamido]anthraquinone] |  |  |  | 82 ± 12 | 52 ± 4 | 14 ± 10 | 56 ± 14 | 33 ± 9 | 22 ± 17

From patent US20090253709A1 (NATIONAL DEFENSE MEDICAL CENTER, priority 2008, published 2009)
